Test results from patent US20190351031A1, “METHODS OF SELECTING SUBJECTS FOR COMBINATION CANCER THERAPY WITH A POLYMER-CONJUGATED SOLUBLE PH20” (HALOZYME, INC., priority 2018, published 2019).

Experiments:
[1] = test system: BxPC3 pancreatic cancer cell line; assay: Tumor growth inhibition in BxPC-3 human pancreatic tumor xenograft model; type: in vivo, mouse; conditions: gemcitabine 60, 120, 180 and 240 mg/kg once a week, day 0, 7, 14, 21
Experimental: Tumor cells from the BxPC3 pancreatic cancer cell line (American Tissue Culture Collection (ATCC) CRL-1687) were grown to approximately 80% confluency, trypsinized, collected, washed once in HBSS (Hank's balance salt solution, Mediatech Inc.). Prior to inoculation, cells were washed twice with sterile HBSS, counted using a Nexcelom Cellometer (Nexcelom Bioscience; Lawrence, Mass.) automated counting device which determines cell concentration and viability via Trypan Blue exclusion and diluted with HBSS to a concentration of 1×10^8 cells/mL on ice before inoculation into animals. Male nude mice (Athymic NCr nu/nu mice, Taconic Laboratories, Inc.) approximately 6 weeks old, were inoculated intramuscularly (IM) with 0.05 mL of cell suspension, peritibially, in the left hind leg (adjacent to the tibia periosteum). The tumors in the animals were assessed twice a week and allowed to grow to a mean tumor volume of approximately 350-400 mm^3. Actual tumor volumes were determined using VisualSonics Vevo 770 high-resolution ultrasound (VisulaSonics Inc.; Toronto, Ontario, Canada). […]
The tumor volumes of all mice were measured by capturing images using the VisualSonics ultrasound system 2 times per week. Tumor volume was calculated using a 3D-mode imaging software program (VisualSonics® Vevo 770®, v 3.0.0). The percent tumor growth inhibition (% TGI) was calculated by the following equation: […]

[2] = test system: BxPC3 pancreatic cancer cell line; assay: Median survival time (time to survival endpoint) in BxPC-3 xenograft model; type: in vivo, mouse; conditions: three 4-week dosing cycles; PEGPH20 4.5, nab-paclitaxel 10 mg/kg, gemcitabine 180 mg/kg
Experimental: Following the first four week dosing cycle as set forth in part A, the dosing cycle was repeated two times and time to survival endpoint was followed over time. Briefly, in each dosing cycle, animals were treated with vehicle or PEGPH20 ([…]) with or without nab-paclitaxel (10 mg/kg) intravenously twice a week for four weeks. In each cycle, groups receiving gemcitabine were administered gemcitabine (180 mg/kg) 24 hours after PEGPH20 and/or nab-paclitaxel every 7 days for three weeks of the dose cycle. Time to survival endpoint, a measure of animal survival, was defined as (a) time to tumor volume of greater than 2000 mm^3, (b) time to a greater than 20% bodyweight loss, or (c) time to animal duress or death.

[3] = in vivo; cited from earlier work
pancreatic cancer = conditions: gemcitabine monotherapy (Burris et al. 1997); cited from earlier work
[4] = test system: carbohydrate antigen 19-9 (CA19-9); assay: Serum CA19-9 tumor biomarker ELISA in BxPC-3 xenograft model; type: in vivo, mouse; conditions: day 20 of first dosing cycle
Experimental: C. Measurement of Tumor Biomarkers Biomarkers carbohydrate antigen 19-9 (CA19-9) and carcinoembryonic antigen (CEA) associated with pancreatic cancer were tested to measure therapeutic response. Animals were treated as described in part A. Serum was collected from satellite animals ([…]) from each group on day 0, 6, 13 and 20 of the first dosing cycle. Human CA19-9 was measured using a CA 19-9 ELISA kit (Catalog No. CA199T, Calbiotech, Spring Valley, Calif.) and CEA tumor antigen was measured using a CEA ELISA kit (Catalog No. CE062T, Calbiotech, Spring Valley, Calif.).

[5] = route: IV or PO; cited from earlier work
cytidine deaminase = target: T1, cytidine deaminase (Homo sapiens, UniProt P32320); conditions: cited from earlier work
T1 construct: for the enzyme purified from human liver; host or cells: human liver
T1 sequence (P32320 whole entry): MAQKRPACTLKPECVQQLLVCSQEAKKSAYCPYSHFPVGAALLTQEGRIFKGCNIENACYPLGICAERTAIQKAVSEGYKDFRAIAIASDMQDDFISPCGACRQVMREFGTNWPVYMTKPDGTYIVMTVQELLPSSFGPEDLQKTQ

B16 melanoma model = conditions: oral 600 mg/kg/d (Yoshihara et al. 2005); cited from earlier work

## Nc1ccn([C@@H]2O[C@H](CO)[C@@H](O)C2(F)F)c(=O)n1 [gemcitabine, 2′,2′-difluorodeoxycytidine]
[1]
  tumor growth compared to vehicle only: inhibited tumor growth at all doses tested
[2]
  Median Survival Time: 38 days
[3]
  half-life in plasma: approximately 10 minutes
Pancreatic cancer
  median survival: over 5 months
[4]
  level of CA19-9 marker in serum: approximately similar to vehicle only control

## C[C@H]1C[C@@H]2[C@H]([C@@H](O)C[C@@]3(C)[C@H]2CC[C@]3(O)C(=O)COC(=O)CCC(=O)O)[C@@]2(C)C=CC(=O)C=C12 [Methylprednisolone sodium succinate]
[5]
  Equivalent Potency: 4 mg

## C[C@]12CCC(=O)C=C1CC[C@@H]1[C@@H]2[C@@H](O)C[C@@]2(C)[C@H]1CC[C@]2(O)C(=O)CO [Hydrocortisone]
[5]
  Equivalent Potency: 20 mg

## C[C@]12C=CC(=O)C=C1CC[C@@H]1[C@@H]2[C@@H](O)C[C@@]2(C)[C@H]1CC[C@]2(O)C(=O)CO [Prednisolone]
[5]
  Equivalent Potency: 5 mg

## Nc1ccn([C@H]2C[C@H](O)[C@@H](CO)O2)c(=O)n1 [deoxycytidine]
Cytidine deaminase
  rate of deamination relative to decitabine at equal concentrations: about 6 fold

## Cc1cc(=O)oc2cc(O)ccc12 [4-MU, 7-hydroxy-4-methylcoumarin]
B16 melanoma model
  reduction of metastases: 64%
